Test [1] deals with T1, Adenosylhomocysteinase (Rattus norvegicus) (UniProt P10760).
T1 sequence (whole entry): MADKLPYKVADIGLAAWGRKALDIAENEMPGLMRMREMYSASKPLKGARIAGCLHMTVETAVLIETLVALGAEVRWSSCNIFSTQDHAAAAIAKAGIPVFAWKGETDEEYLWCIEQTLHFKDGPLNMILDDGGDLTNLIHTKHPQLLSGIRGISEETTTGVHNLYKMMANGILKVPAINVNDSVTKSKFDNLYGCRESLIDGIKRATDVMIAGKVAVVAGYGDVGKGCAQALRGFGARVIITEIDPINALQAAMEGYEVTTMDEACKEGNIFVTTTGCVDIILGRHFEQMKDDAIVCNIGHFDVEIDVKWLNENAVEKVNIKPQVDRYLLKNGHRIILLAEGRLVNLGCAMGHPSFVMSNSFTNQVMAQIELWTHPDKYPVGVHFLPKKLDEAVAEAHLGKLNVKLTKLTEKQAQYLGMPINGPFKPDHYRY
Description: Tested for rate constant for inactivation of S-adenosyl-L-homocysteine hydrolase from rat

The next test concerns the target T2, Adenosylhomocysteinase (Rattus norvegicus, UniProt P10760).
T2 sequence (P10760 whole entry): T1 sequence (whole entry)
In words: Tested for binding affinity of compound against S-adenosyl-L-homocysteine hydrolase.

Test [2] has as its system T-cell. In words: Tested for inhibition of T cell proliferation. The format is functional, cell-based. Conditions: Mus musculus.
In test [3] the test system is T-cell. Briefly: Inhibition of T cell proliferation was determined using murine splenic mononuclear cells. The format is functional, cell-based. Conditions: Mus musculus.

In test [1], `Nc1ncnc2c1ncn2C1C/C(=C\F)C(O)C1O` (stereo not given) returned a K inact of 0.18 min⁻¹. On Adenosylhomocysteinase, this compound displayed a Ki of 6.9 µM. Moreover, 0.8 µM corresponded to half-maximal inhibition with T-cell [2] (IC50).

The compound `Nc1ncnc2c1ncn2C1C/C(=C/F)C(O)C1O` (stereo not given) returned a 50% inhibitory concentration (IC50) in the test with T-cell [3] of 6.7 µM. The compound further had a Ki at Adenosylhomocysteinase of 1.1 µM.

These data come from ChEMBL document CHEMBL1127177, “(E) and (Z)5-fluoro olefin carbocyclic nucleosides: effect of olefin geometry on inhibition of s-adenosyl-l-homocysteine hydrolase” (Bioorg Med Chem Lett, 1993).
